{
  "source": "patent US20240299358A1",
  "about": "“COMPOSITIONS AND METHODS FOR DIAGNOSIS AND TREATMENT OF AUTOIMMUNE DISEASES” (DUKE UNIVERSITY, priority 2021, published 2024)",
  "key": {"eHsp90 [1]": {"tested_on": "eHsp90", "experiment": "Flow cytometry uptake of fluor-tethered Hsp90 inhibitors by T cells from human PBMCs", "type": "cell-based", "conditions": "anti-CD3/28 stimulated human PBMCs, following activation (FIG. 3A)", "protocol": "T-cell activation: PBMC aliquots (ZenBio SER-PBMC-F) were washed in RPMI-1640 with 10% FBS and PSG and then rested overnight in a T-75 flask. The suspended cells were then transferred to a fresh flask and activated in fresh RPMI-1640/10% FBS/PSG by 3:20,000 anti-CD3 (BioLegend 317303), 3:20,000 anti-CD28 (BioLegend 302913), and 1:10,000 (30 IU/mL) human IL-2 (CST 8907SC) and incubated for up to 72 hours. In the experiments with longer activation, samples were diluted 1:3 into fresh media containing hIL-2 at 72 hours post initial stimulation with CD3/CD28 antibodies.\nFlow Cytometry: The activated/rested cells were plated into a 96-well round bottom plate and pelleted at low speed. Cells were resuspended in chilled media containing titrated HS-131 or HS-198 (in 1% DMSO) and stained for 30 minutes at RT. Fluorochrome tagged inhibitors and media were washed away with a PBS wash, followed by a PBS wash containing 3% NMS. Surface antibody stains were performed in 3% NMS/PBS for 30 minutes followed by PBS washes (2x). Samples were analyzed on BD FACSCanto II flow cytometer. Permeabilized samples were prepared as previously described followed by fixation in 4% Formaldehyde/PBS overnight at 4° C. Sample analysis was performed with Flowing Software and FlowJo.\nA hallmark of T cell function is to proliferate rapidly in response to antigen presentation along with appropriate cytokine and costimulatory signaling. This leads to the induction of the chaperone machinery which is essential in facilitating this process. In some respects, antigen induced T cell proliferation may be analogous to oncogene driven metastasis. Therefore, to investigate whether proliferating T cells similarly express eHsp90 during T cell activation, their ability to absorb fluor-tethered Hsp90 inhibitors following an anti-CD3/CD28 challenge was examined (see. FIGS. 2A-2E). The structures of two types of fluor-tethered Hsp90 inhibitors (HS-131 and […]) that were used in the present studies are shown in FIG. 2A. […]"}, "eHsp90 [2]": {"tested_on": "eHsp90", "experiment": "In vivo tracking of eHsp90 expression in CIA mouse model of RA (flow cytometry, CryoViz imaging)", "protocol": "FIG. 5A is a schematic of CIA mouse model of RA experimental design, wherein mice were inoculated with CIA on day 0) and 21. […] 6-hours post treatment mice were whole body cryopreserved. […] Gated regions indicate CD4 and CD8 T-Cell populations isolated from individual mice. eHsp90 expression in CD4 and CD8 T cells 6 hours post HS-131 or HS-198 treatment. N=3+SD. Experiments represent 3 biological replicates.\nCIA Disease: Collagen was prepared at 4 mg/ml in 0.01 N acetic acid. Equal volumes of 4 mg/ml collagen and 5 mg/ml Freund's complete adjuvant were emulsified by hand mixing with syringes for approximately 5 min, at which point a bead of this material holds its form when placed in water. On study days 0 and 21, animals were anesthetized with isoflurane and given intradermal injections of a total of 400 μg of type II collagen in Freund's complete adjuvant at the base of the tail.\nCryoViz™ Imaging: Whole mice were imaged at 10.23 μm×10.23 μm in-plane resolution using an Olympus MVX-10 microscope with a 1X objective and 0.63× magnification and 40 μm section thickness, using the Cryo Viz™ (BioInVision, Inc., Cleveland, USA). CryoViz™ is a fully automated, serial sectioning-and-imaging system which provides 3-dimensional, tiled, microscopic anatomical bright field and molecular fluorescence images over large fields-of-view such as a whole mouse. Images were acquired using a dual band FITC/TxRed fluorescence filter (Chroma, Inc., Rockingham, VT), a liquid crystal RGB filter and a low-noise monochrome camera. Raw images acquired by the Cryo Viz™ were processed to generate 3D color anatomical brightfield and molecular fluorescence volumes using the Cryo Viz™ Preprocessor software (BioIn Vision, Inc., Cleveland, Ohio). These 3D volumetric image data were then processed using the CryoViz™ 3D Visualizer software (BioInVision, Inc., Cleveland, USA) to obtain 3D reconstructed brightfield and fluorescence volume renderings and movies with 2D slice cutaway animations, showing the 2D/3D biodistribution of TxRed labeled HS-131 within the mouse volume.\nThis was consistently seen in cell culture, tumor cell xenografts and mouse models of spontaneous metastatic disease (Barrott et al. Chem Biol 20. 1187-1197 (2013)). […] To determine if this phenomenon occurred within the context of a fully functional immune system, the collagen induced arthritic (CIA) mouse model of human rheumatoid arthritis (RA) was utilized (Rice et al. Arthritis Rheum 58. 3765-3775 (2008)). Mice (DBA/IlacJ ˜8 weeks old) reliably develop polyarthritis when immunized against bovine type II collagen (Scarneo et al. Arthritis Res Ther 21, 292 (2019): Campbell et al., Ann Rheum Dis 56, 364-368 (1997)). The disease that occurs is usually non-symmetric, and any combination of paws/joints may be affected. Mice were injected […] with bovine collagen at Day (and then again 21 days later (FIG. 5A). This second injection triggered the development of the CIA related symptoms over the next several days within the joints. A primary mediator of local inflammatory responses in autoimmunity are invading T cell populations recognizing foreign antigens. To determine if invading T cells at sites of active disease expressed eHsp90, the animals were injected with HS-131 or HS-198. This was done at the peak of RA symptoms following the second immune challenge. After 6 hours, the animals were euthanized, immediately cryo-frozen in liquid nitrogen and cryo-sectioned (see, FIG. 5A).\nApproximately, 500 40 μm slices were made and each slice imaged with both bright field and by fluorescence at Ex640 nm/Em680 nm. Evaluation of the biodistribution was then made by histological examination of individual slices and after in silico reconstruction of the entire mouse anatomy (see, FIGS. 5B-5E)."}},
  "note": "Entries after “also recorded” stand apart in the source; their conditions may differ.",
  "data": [
    {"smiles": "Cc1nn(-c2ccc(C(N)=O)c(NCCCOCCOCCOCCOCCOCCCNCc3ccc(C(=C\\C=C4\\N(CCCCS(=O)(=O)[O-])c5ccccc5C4(C)C)/C=C/C4=[N+](CCCCS(=O)(=O)O)c5ccccc5C4(C)C)cc3)c2)c2c1C(=O)CC(C)(C)C2", "note": "[HS-131]", "values": [
      {"measurement": "eHsp90 expression upregulation as determined by HS-131 binding", "setting": "eHsp90 [1]", "value": "20-25 fold"},
      {"measurement": "probe uptake in joints of naïve non diseased animal compared to CIA diseased animal", "setting": "eHsp90 [2]; 10 nmoles tail vein, 6 hours post injection (FIGS. 6A-6C)", "value": "no marked HS-131 in the joints"},
      {"measurement": "systemic distribution in whole-body reconstruction of CIA mice", "setting": "eHsp90 [2]; 6 hours post tail vein injection", "value": "largely confined to areas of active immune cell invasion"},
      {"measurement": "probe signal (eHsp90 expression) in T cells of PBMC populations from CIA mice by flow cytometry", "setting": "eHsp90 [2]; 6 hours post tail vein injection, CD4 and CD8 T cells (FIG. 5B)", "value": "pronounced eHsp90 expression"},
      {"measurement": "probe localization in hind leg, knee, hip and paw of CIA mouse", "setting": "eHsp90 [2]; 6 hours post tail vein injection, cryo-sections (FIG. 5C)", "value": "marked increase"},
      {"measurement": "fluorescence associated with the lower intestine of CIA mice", "setting": "eHsp90 [2]; 24 hours post HS-131 injection (FIG. 7B)", "value": "no discrete fluorescence"},
      {"measurement": "route of elimination / clearance", "setting": "eHsp90 [2]; mice", "value": "via the hepatobiliary system and intestines; also recorded: exclusively eliminated through the biliary system and intestine; also recorded: rapid hepatobiliary clearance"}
    ]}
  ]
}
